According to patent US7271190B2, “Indazole compounds as β3 adrenoceptor agonist” (Asahi Kasei Pharma Corporation, priority 2001, dated 2007):
Structures can show the parent of a compound that is named as a salt.

Experiments:
human β3 = target: T1, human β3 (Homo sapiens, UniProt P13945); experiment: Human β3-agonist activities (cAMP in transfected CHO cells); format: cell-based; details: for EC50: CHO cells expressing human β3, cAMP, 30 minutes; for Emax: CHO, read-out: Intrinsic activity*
T1 construct: used as a probe to obtain the full length human β3 gene from a human genomic library; expressed in transfected cells; host or cells: CHO (Chinese hamster ovary) cells, pcDNA3 vector
T1 sequence (P13945 whole entry): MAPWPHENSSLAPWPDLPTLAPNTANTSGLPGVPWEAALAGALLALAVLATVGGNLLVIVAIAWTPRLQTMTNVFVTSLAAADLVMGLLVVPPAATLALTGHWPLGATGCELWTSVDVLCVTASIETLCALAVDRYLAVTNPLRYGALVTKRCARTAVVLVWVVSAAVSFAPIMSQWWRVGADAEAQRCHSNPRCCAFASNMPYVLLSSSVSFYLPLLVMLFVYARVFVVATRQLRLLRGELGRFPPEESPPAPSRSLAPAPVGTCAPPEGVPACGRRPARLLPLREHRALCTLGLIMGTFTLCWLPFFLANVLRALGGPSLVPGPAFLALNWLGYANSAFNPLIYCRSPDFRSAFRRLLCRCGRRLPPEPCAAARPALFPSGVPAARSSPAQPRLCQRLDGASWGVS
Method: Human β3-Agonist Activities
Human β3-agonist activities were determined using CHO (Chinese hamster ovary) cells transfected with pcDNA3 (mfd. by Invitrogen) to which human β3 gene had been inserted. Human β3 fragment was first obtained from human adipose tissue cDNA (mfd. by Clonetech) by PCR using the primer of β3 (Krief, et al., J. Clin. Invest., vol. 91, pp. 344-349 (1993)). The human β3 fragment thus obtained was used as a probe to obtain the full length human β3 gene from a human genomic library (mfd. by Clonetech). The above cells were cultured in a Ham F-12 medium supplemented with 10% fetal bovine serum, 400 μg/mL geneticin (Gibco BRL), 100 U/mL penicillin and […] streptomycin. After placing these cells (5×10^5) into a 6-well plate and culturing them for 24 hours, they were allowed to stand on a serum-free Ham F-12 medium for 2 hours. The compound was first dissolved in DMSO, repeatedly diluted by ten times with Ham F-12 supplemented with 1 mM isobutylmethyl-xanthine and 1 mM ascorbic acid to a final concentration of from 10^−5 to 10^−12 M, and then added to the cells. After the cells were cultured for 30 minutes, the medium was removed, followed by addition of 0.5 mL of 1 N NaOH. The medium was allowed to stand for 20 minutes and then 0.5 mL of 1 N acetic acid was added to the medium. The medium was stirred and then centrifuged, followed by quantitating cAMP with cAMP EIA kit (mfd. by Cayman). Isoproterenol was purchased from RBI (Research Biochemicals International).

ddy mice = experiment: Toxicity test, oral, mice; format: in vivo; details: orally, 100 mg/kg, 6-week old male ddy mice, eight animals
Method: Each of the present compounds synthesized in Examples 1 and 2 were orally administered to 6-week old male ddy mice (CHARLES RIVER JAPAN) at 100 mg/kg. […] The other compounds, which achieved the same results, were also shown to have a low toxicity.

[1] = Relative activities (%) as compared with isoproterenol

Row | EC50 (human β3) | Emax (human β3; [1]) | SMILES | animals found dead (ddy mice) | Intrinsic activity* (human β3; [1])
1 | 11 nM | 80% | CNS(=O)(=O)c1cc([C@@H](O)CNCCOc2ccc3c(C)n[nH]c3c2)ccc1O [Example 89, (R)-N-methyl-[5-[2-[2-(3-methylindazol-6-yloxy)ethylamino]-1-hydroxyethyl]-2-hydroxyl]benzenesulfonamide] | – | –
2 | 3.4 nM | 65% | Cc1c(-c2cccnc2)[nH]c2cc(OCCNC[C@H](O)c3ccc(F)c(NS(C)(=O)=O)c3)ccc12 [Example 79, (R)-N-[2-fluoro-5-[1-hydroxy-2-[2-(3-methyl-2-pyridin-3-yl-1H-indol-6-yloxy)ethylamino]ethyl]phenyl]methanesulfonamide] | – | –
3 | 3.5 nM | 75% | CCc1c(-c2cccnc2)[nH]c2cc(OCCNC[C@H](O)c3cccc(NS(C)(=O)=O)c3)ccc12 [Example 73, (R)-N-[3-[2-[2-(3-ethyl-2-pyridin-3-yl-1H-indol-6-yloxy)ethylamino]-1-hydroxyethyl]phenyl]methanesulfonamide] | – | –
4 | 26 nM | 64% | COc1n[nH]c2cc(OCCNC[C@H](O)c3cccc(NS(C)(=O)=O)c3)ccc12 [Example 86, (R)-N-[3-[2-[2-(3-methoxyindazol-6-yloxy)ethylamino]-1-hydroxyethyl]phenyl]methanesulfonamide] | – | –
5 | 2.8 nM | 105% | Cc1c(-c2cccnc2)[nH]c2cc(OCCNC[C@H](O)c3cccc(NS(C)(=O)=O)c3)ccc12 [Example 72, (R)-N-[3-[1-hydroxy-2-[2-(3-methyl-2-pyridin-3-yl-1H-indol-6-yloxy)ethylamino]ethyl]phenyl]methanesulfonamide] | – | –
6 | 2.8 nM | 77% | Cc1c(CCC(=O)N(C)C)[nH]c2cc(OCCNC[C@H](O)c3cccc(NS(C)(=O)=O)c3)ccc12 [Example 81] | – | –
7 | 32 nM | 55% | CCOC(=O)CCc1c(CC)[nH]c2cc(OCCNC[C@H](O)c3cccc(NS(C)(=O)=O)c3)ccc12 [Example 20] | – | –
8 | 4.4 nM | 79% | Cc1c(C2CCCN(C(=O)OC(C)(C)C)C2)[nH]c2cc(OCCNC[C@H](O)c3cccc(NS(C)(=O)=O)c3)ccc12 (stereo partly drawn) [Example 75, (R)-N-[3-[2-[2-[2-(N′-t-butyloxycarbonylpiperidin-3-yl)-3-methyl-1H-indol-6-yloxy]ethylamino]-1-hydroxyethyl]phenyl]methanesulfonamide] | – | –
9 | 1.4 nM | 81% | CCOC(=O)CCc1[nH]c2cc(OCCNC[C@H](O)c3cccc(NS(C)(=O)=O)c3)ccc2c1C [Example 82, ethyl (R)-3-[3-methyl-6-[2-[2-(3-methylsulfonylaminophenyl)-2-hydroxyethylamino]ethoxy]-1H-indol-2-yl]propionate] | – | –
10 | 2.8 nM | 63% | CCOC(=O)CCc1[nH]c2cc(OCCNC[C@H](O)c3ccc(F)c(NS(C)(=O)=O)c3)ccc2c1C [Example 80, ethyl (R)-3-[6-[2-[2-(4-fluoro-3-methylsulfonylaminophenyl)-2-hydroxyethylamino]ethoxy]-3-methyl-1H-indol-2-yl]propionate] | – | –
11 | 4.7 nM | 52% | Cc1n[nH]c2cc(OCCNC[C@H](O)c3ccc(Cl)c(NS(C)(=O)=O)c3)ccc12 [Example 88, (R)-N-[5-[2-[2-(3-methylindazol-6-yloxy)ethylamino]-1-hydroxyethyl]-2-chlorophenyl]methanesulfonamide] | – | –
12 | 3.9 nM | 71% | Cc1c(-c2ccncc2)[nH]c2cc(OCCNC[C@H](O)c3cccc(NS(C)(=O)=O)c3)ccc12 [Example 74, (R)-N-[3-[1-hydroxy-2-[2-(3-methyl-2-pyridin-4-yl-1H-indol-6-yloxy)ethylamino]ethyl]phenyl]methanesulfonamide] | – | –
13 | 12 nM | 81% | Cc1n[nH]c2cc(OCCNC[C@H](O)c3cccc(NS(C)(=O)=O)c3)ccc12 [Example 84, (R)-N-[3-[2-[2-(3-methylindazol-6-yloxy)ethylamino]-1-hydroxyethyl]phenyl]methanesulfonamide hydrochloride] | – | –
14 | 23 nM | 38% | CCOC(=O)CCc1c(C)[nH]c2cc(OCCNC[C@H](O)c3cccc(NS(C)(=O)=O)c3)ccc12 [Example 13, ethyl (R)-3-[6-[2-[2-(3-methylsulfonylamino)phenyl-2-hydroxyethylamino]ethoxy]-2-methyl-1H-indol-3-yl]propionate] | – | –

Row | SMILES | EC50 (human β3) | Emax (human β3; [1]) | animals found dead (ddy mice) | Intrinsic activity* (human β3; [1])
15 | CCOC(=O)c1[nH]c2cc(OCCNC[C@H](O)c3cccc(NS(C)(=O)=O)c3)ccc2c1C [Example 1, ethyl (R)-6-[2-[2-(3-methylsulfonylamino)phenyl-2-hydroxyethylamino]ethoxy]-3-methyl-1H-indole-2-carboxylate hydrochloride] | 15 nM | 97% | none of the eight animals were found to be dead | –
16 | Cc1c(C2CCCNC2)[nH]c2cc(OC[C@@H](O)NCCc3cccc(NS(C)(=O)=O)c3)ccc12 (stereo partly drawn) [Example 76, (R)-N-[3-[2-[1-hydroxy-2-(3-methyl-2-piperidin-3-yl-1H-indol-6-yloxy)ethylamino]ethyl]phenyl]methanesulfonamide] | 21 nM | – | – | 76%
17 | Cc1c(C(=O)O)[nH]c2cc(OCCNC[C@H](O)c3cccc(NS(C)(=O)=O)c3)ccc12 [Example 2, (R)-6-[2-[2-(3-methylsulfonylamino)phenyl-2-hydroxyethylamino]ethoxy]-3-methyl-1H-indole-2-carboxylic acid] | 18 nM | 124% | none of the eight animals were found to be dead | –
